The results in this text go back to US10590109B2, “Heterocyclic compounds used as FGFR inhibitors” (Nanjing InnoCare Pharma Tech Co., Ltd., priority 2016, dated 2020).

As usually defined, the IC50 is the concentration needed to halve the response being measured.

In assay [1] the target is human recombinant FGFR1 catalytic structural domain protein (Homo sapiens (Human), UniProt P11362). Description: FGFR1 activity inhibition test (HTRF kinase assay). It is filed as biochemical. Conditions: 40 μM ATP. Here is the method: FGFR1 Activity Inhibition Test
The influence of the compound according to the present invention on the activity of fibroblast growth factor receptor 1 (FGFR1) was evaluated by an in vitro kinase assay experiment.
(§1) The experimental method is summarized as follows:
The in vitro activity of FGFR1 was determined by assaying the phosphorylation level of the substrate in the kinase reaction, by means of an HTRF kinase assay kit.
(§2) If the IC50 value of the compound was very low, the initial concentration of the compound could be reduced.
After 60 min, the enzyme reaction was terminated by EDTA in the assay solution, and the phosphorylated products were identified by both the Eu^3+ labeled cage-shaped antibody (donor) and the streptavidin labeled XL665 antibody (receptor) at the same time. […] The inhibition percentage of the compound against FGFR1 activity could be calculated with the following formula: Inhibition percentage=100−100*(signalcompound−signalnegative control)/(signalpositive control−signalnegative control)
The IC50 value of the compound was calculated by the following formula, from 10 concentration points, with XLfit (ID Business Solutions Ltd., UK): Y=Bottom+(Top−Bottom)/(1+10^((Log IC50−X)*slope factor))
Where, Y is the inhibition percentage, Bottom is the bottom plateau of the curve (the bottom plateau of the S-type curve), Top is the top plateau of the curve (the top plateau of the S-type curve), and X is the log value of the compound concentration to be measured.
For orientation: TR-FRET usually uses a lanthanide donor and a delayed reading to cut background.

The target in assay [2] is human recombinant FGFR4 catalytic structural domain protein (Homo sapiens (Human), UniProt P22455). Description: FGFR4 activity inhibition test (HTRF kinase assay). The note with it: 90 μM ATP. It is filed as biochemical. As for the experimental part:
FGFR4 Activity Inhibition Test
The influence of the compound according to the present invention on the activity of fibroblast growth factor receptor 4 (FGFR4) was evaluated by an in vitro kinase assay experiment.
as §1
The in vitro activity of FGFR4 was determined by assaying the phosphorylation level of the substrate in the kinase reaction, by means of an HTRF kinase assay kit.
as §2
After 60 min, the enzyme reaction was terminated by EDTA in the assay solution, and the phosphorylated products were identified by both the Eu^3+ labeled cage-shaped antibody (donor) and the streptavidin labeled XL665 antibody (receptor) at the same time. […] The inhibition percentage of the compound against FGFR4 activity could be calculated with the following formula: Inhibition percentage=100−100*(signalcompound−signalnegative control)/(signalpositive control−signalnegative control)
The IC50 value of the compound was calculated by the following formula, from 10 concentration points, with XLfit (ID Business Solutions Ltd., UK): Y=Bottom+(Top−Bottom)/(1+10^((Log IC50−X)*slope factor)) Where, Y is the inhibition percentage, Bottom is the bottom plateau of the curve (the bottom plateau of the S-type curve), Top is the top plateau of the curve (the top plateau of the S-type curve), and X is the log value of the compound concentration to be measured.

For assay [3], the system named is FGF19/FGFR4-overexpressed Hep3B hepatocellular carcinoma (HCC) xenograft tumors. It is filed as in vivo. Conditions: 40 mg/kg QD, oral. As for the experimental part: Data points represent group mean, error bars represent standard error of the mean (SEM). *P<0.05, **P<0.01, ***P<0.001, ****P<0.0001, NS P>0.05 vs vehicle group.
The relative change of body weights (% RCBW) was calculated based on the following formula: RCBW (%)=(BWi−BW0)/BW0×100%, BWi was the bodyweight on the day of dosing and BW0 was the bodyweight on the first day of administration. Data points represent percent group mean change in BW. Error bars represent standard error of the mean (SEM).
Dosing was initiated on day 0 and effects on tumor growth were evaluated by measuring percent tumor growth inhibition (TGI) at the end of the study. Tolerability was assessed by body weight loss, lethality, and clinical signs of adverse treatment-related side effects. Tumor volumes and body weights were measured twice per week in the administration period. The percentage of TGI was determined on day 18 of the study. The difference between the mean values of tumor volume in treatment and vehicle groups was analyzed for significance using one-way ANOVA (followed by Dennett's test) at each time point and a P<0.05 was considered to be statistically significant.

Sequence of human recombinant FGFR4 catalytic structural domain protein (P22455 460-802): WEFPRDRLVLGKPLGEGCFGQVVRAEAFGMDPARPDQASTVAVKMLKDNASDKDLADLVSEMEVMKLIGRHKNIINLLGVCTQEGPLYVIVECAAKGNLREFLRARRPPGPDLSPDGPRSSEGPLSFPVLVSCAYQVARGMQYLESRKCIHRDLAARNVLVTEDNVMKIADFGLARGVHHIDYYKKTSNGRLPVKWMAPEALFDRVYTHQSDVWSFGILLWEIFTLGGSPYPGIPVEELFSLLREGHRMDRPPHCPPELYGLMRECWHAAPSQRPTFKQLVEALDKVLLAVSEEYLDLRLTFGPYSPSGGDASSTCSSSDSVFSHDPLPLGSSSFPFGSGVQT
Sequence of human recombinant FGFR1 catalytic structural domain protein (P11362 other isoform, or with tags, fused parts or gaps): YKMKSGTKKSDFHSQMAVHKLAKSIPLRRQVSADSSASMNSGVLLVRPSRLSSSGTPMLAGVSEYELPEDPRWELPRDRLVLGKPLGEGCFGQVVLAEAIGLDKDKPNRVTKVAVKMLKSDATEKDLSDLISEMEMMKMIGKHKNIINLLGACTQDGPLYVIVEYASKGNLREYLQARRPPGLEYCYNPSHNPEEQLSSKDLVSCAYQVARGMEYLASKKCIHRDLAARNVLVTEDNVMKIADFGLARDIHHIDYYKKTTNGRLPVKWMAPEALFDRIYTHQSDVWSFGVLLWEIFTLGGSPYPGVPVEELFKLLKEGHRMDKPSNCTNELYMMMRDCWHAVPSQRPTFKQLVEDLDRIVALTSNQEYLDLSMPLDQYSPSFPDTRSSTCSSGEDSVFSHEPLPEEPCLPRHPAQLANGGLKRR

As to `COCCNc1cc(NC(=O)N(C)c2cccc(C=O)n2)ncc1C#N` [Compound 1, 3-(5-cyano-4-((2-methoxyethyl)amino)pyrid-2-yl)-1-(6-formylpyrid-2-yl)-1-methyl urea], the IC50 in assay [1] was > 1 µM.

On to `CN(C(=O)Nc1cc(Cl)ncn1)c1cccc(C=O)n1` [Compound 2, 3-(6-chloropyrimidin-4-yl)-1-(6-formylpyrid-2-yl)-1-methylurea], for which the IC50 in assay [2] was 0.1 to 1 µM; in assay [1], > 1 µM.

In the case of `CN(C(=O)Nc1ccc(C#N)cn1)c1cccc(C=O)n1` [Compound 3, 3-(5-cyanopyrid-2-yl)-1-(6-formylpyrid-2-yl)-1-methylurea], the IC50 was 0.01 to 0.1 µM in assay [2] and > 1 µM in assay [1].

Turning to `CC(C)Nc1cc(NC(=O)N(C)c2cccc(C=O)n2)ncc1C#N` [Compound 5, 3-(5-cyano-4-(isopropylamino)pyrid-2-yl)-1-(6-formylpyrid-2-yl)-1-methylurea], the results for the IC50 in assay [2] and in assay [1] were < 0.01 µM and > 1 µM, respectively.

With `CC(C)Oc1cc(NC(=O)N(C)c2cccc(C=O)n2)ncc1C#N` [Compound 6, 3-(5-cyano-4-isopropoxypyrid-2-yl)-1-(6-formylpyrid-2-yl)-1-methylurea], the results for the IC50 in assay [2] and in assay [1] were < 0.01 µM and > 1 µM, respectively.

`COCCOc1cc(NC(=O)N(C)c2cccc(C=O)n2)ncc1C#N` [Compound 7, 3-(5-cyano-4-(2-methoxyethoxy)pyrid-2-yl)-1-(6-formylpyrid-2-yl)-1-methylurea]: the IC50 in assay [2] is < 0.01 µM; in assay [1] it was > 1 µM.

As to `COCCNc1cc(NC(=O)N(C)c2nccc(C=O)n2)ncc1C#N` [Compound 8, 3-(5-cyano-4-((2-methoxyethyl)amino)pyrid-2-yl)-1-(4-formylpyrimidin-2-yl)-1-methylurea], the values for the IC50 in assay [2] and in assay [1] were 0.1 to 1 µM and > 1 µM, respectively.

`CN1CCN(Cc2ccc(N(C)C(=O)Nc3cc(Cl)c(C#N)cn3)nc2C=O)C(=O)C1` [Compound 17, 3-(4-chloro-5-cyanopyrid-2-yl)-1-(6-formyl-5-((4-methyl-2-carbonylpiperazin-1-yl)methyl)pyrid-2-yl)-1-methyl urea]: in assay [2], the IC50 is 0.1 to 1 µM.

Regarding `CNC(=O)c1cc(Oc2ccc(NC(=O)Nc3ccc(Cl)c(C(F)(F)F)c3)cc2)ccn1` [sorafenib, reference compound], the “antitumor activity (in words)” value in assay [3] was “some antitumor activity”.
